From ChEMBL document CHEMBL3608209, “N-Aryl benzenesulfonamide inhibitors of [3H]-thymidine incorporation and β-catenin signaling in human hepatocyte-derived Huh-7 carcinoma cells” (Bioorg Med Chem Lett, 2015)

Legend:
Huh-7 [1] = experiment: Inhibition of Wnt/beta catenin in human HuH7 cells assessed as [3H]-thymidine incorporation at 10 uM by scintillation counting analysis relative to DMSO-treated control; assay type: cell-based
Huh-7 [2] = experiment: Inhibition of Wnt/beta catenin in human HuH7 cells assessed as [3H]-thymidine incorporation at 10 uM by scintillation counting analysis relative to DMSO-treated control; values are per cent of control
Huh-7 [3] = experiment: Inhibition of Wnt/beta catenin in human HuH7 cells assessed as [3H]-thymidine incorporation at 10 uM by scintillation counting analysis relative to FH535; assay type: cell-based
Huh-7 [4] = experiment: Inhibition of Wnt/beta catenin in human HuH7 cells assessed as decrease in TCF/LEF-dependent promoter activation at 10 uM after 36 hrs by TOPFlash luciferase reporter gene assay relative to control; assay type: cell-based

| SMILES | inhibition (Huh-7 [1]) [%] | level, % of control (Huh-7 [2]) [%] | fold change (FC) (Huh-7 [3]) | inhibition (Huh-7 [4]) [%] |
| --- | --- | --- | --- | --- |
| O=S(=O)(Nc1ccccc1Oc1ccccc1)c1c(F)cccc1F | 34 | 66 | 0.9 |  |
| O=S(=O)(Nc1cccc(OCc2ccccc2)c1)c1ccccc1 | 29 | 71 | 0.8 |  |
| O=C(c1ccccc1)c1ccc(NS(=O)(=O)c2ccccc2)cc1 | 38 | 62 | 1.1 | 46 |
| Cc1cc(CO)ccc1NS(=O)(=O)c1cc(Cl)ccc1Cl | 67 | 33 | 1.9 |  |
| Cc1cc(CO)ccc1NS(=O)(=O)c1c(F)cccc1F | 38 | 62 | 1.1 |  |
| Cc1cc([N+](=O)[O-])ccc1NS(=O)(=O)c1cc(Cl)ccc1Cl | 36 | 64 |  | 73 |
| O=C(c1ccccc1)c1ccc(NS(=O)(=O)c2c(F)cccc2F)cc1 | 33 | 67 | 0.9 |  |
| O=S(=O)(Nc1cccc(OCc2ccccc2)c1)c1c(Cl)cccc1Cl | 31 | 69 | 0.9 | 53 |
| COC(=O)c1cc(F)ccc1NS(=O)(=O)c1cc(Cl)ccc1Cl | 7 | 93 | 0.2 | 61 |
| COC(=O)c1ccc(NS(=O)(=O)c2cc(Cl)ccc2Cl)c(C)c1 | 18 | 82 | 0.5 |  |
| Cc1cc(CO)ccc1NS(=O)(=O)c1ccccc1 | 53 | 47 | 1.5 |  |
| O=[N+]([O-])c1ccc(NS(=O)(=O)c2cc(F)ccc2F)c2ccccc12 | 31 | 69 | 0.9 | 64 |
| Cc1cc(CO)ccc1NS(=O)(=O)c1c(Cl)cccc1Cl | 73 | 27 | 2 | 13 |
| O=S(=O)(Nc1cccc(OCc2ccccc2)c1)c1c(F)cccc1F | 43 | 57 | 1.2 |  |
| COC(=O)c1ccc(NS(=O)(=O)c2c(Cl)cccc2Cl)c(C)c1 | 29 | 71 | 0.8 |  |
| COC(=O)c1cc(Cl)ccc1NS(=O)(=O)c1cc(Cl)ccc1Cl | 0 | 106 | 0 |  |
| O=C(c1ccccc1)c1ccc(NS(=O)(=O)c2c(Cl)cccc2Cl)cc1 | 33 | 67 | 0.9 |  |
| O=S(=O)(Nc1ccccc1Oc1ccccc1)c1c(Cl)cccc1Cl | 38 | 62 | 1.1 | 45 |
| O=[N+]([O-])c1ccc(NS(=O)(=O)c2c(Cl)cccc2Cl)c2ccccc12 | 26 | 74 | 0.7 | 47 |
| O=[N+]([O-])c1ccc(NS(=O)(=O)c2ccccc2)c2ccccc12 | 42 | 58 | 1.2 | 72 |
| O=[N+]([O-])c1ccc(NS(=O)(=O)c2cc(Cl)ccc2Cl)c2ccccc12 | 48 | 52 | 1.3 |  |
